Columns and labels:
[1] = rabbit, in vivo
[2] = rabbit, in vivo; remark: listed apart in the source
[3] = rabbit, in vivo; remark: listed apart in the source
[4] = rabbit, in vivo; remark: listed apart in the source
[5] = rabbit, in vivo; remark: listed apart in the source

Substance: Monosulphate heptadecylmaltose [M10-MONO]
- Body temperature one day after the first immunization, Mean [1]: 38.9 °C
- Body temperature one day after the second immunization, Mean [1]: 39.2 °C
- Number of animals demonstrating a detectable adverse local reaction four weeks after the first immunization [2]: 0/6
- Number of animals demonstrating a detectable adverse local reaction one week after the second immunization [2]: 0/6
- Increase in body temperature one day post immunization 1, mean [3]: 0.5 °C
- Increase in body temperature two days post immunization 1, mean [3]: 0.1 °C
- increases in body temperature in comparison to the corresponding POLY counterpart [3]: lower increases
- Body weight gain one week post immunization 1, mean [4]: 35 g
- Body weight gain two weeks post immunization 1, mean [4]: 49 g
- Reactogenicity 1 week post immunization 2, GMS [5]: 1.34
- Reactogenicity 1 week post immunization 2, antilog [5]: 22
- Reactogenicity 4 weeks post immunization 1, GMS [5]: 1.26
- Reactogenicity 4 weeks post immunization 1, antilog [5]: 18

Substance: Monosulphate heptadodecylmaltose [M12-MONO]
- Body temperature one day after the first immunization, Mean [1]: 39.0 °C
- Body temperature one day after the second immunization, Mean [1]: 39.2 °C
- Number of animals demonstrating a detectable adverse local reaction four weeks after the first immunization [2]: 0/6
- Number of animals demonstrating a detectable adverse local reaction one week after the second immunization [2]: 0/6

Substance: Monosulphate tetradodecyl galactose [G12-MONO]
- Body temperature one day after the first immunization, Mean [1]: 39.1 °C
- Body temperature one day after the second immunization, Mean [1]: 39.3 °C
- Number of animals demonstrating a detectable adverse local reaction four weeks after the first immunization [2]: 1/6 (discoloration, loss
- Number of animals demonstrating a detectable adverse local reaction one week after the second immunization [2]: 1/6 (granuloma)

Substance: maltose decanoic acid polysulphate ester [M10-POLY]
- Increase in body temperature one day post immunization 1, mean [3]: 0.7 °C
- Increase in body temperature two days post immunization 1, mean [3]: 0.5 °C
- Body weight gain one week post immunization 1, mean [4]: 38 g
- Body weight gain two weeks post immunization 1, mean [4]: 53 g
- Reactogenicity 1 week post immunization 2, GMS [5]: 3.37
- Reactogenicity 4 weeks post immunization 1, GMS [5]: 1.73
- Reactogenicity 4 weeks post immunization 1, antilog [5]: 53
